Assay results as given in patent US7960567B2, “Compounds and methods useful for treating asthma and allergic inflammation” (Amgen Inc., priority 2007, dated 2011).

Columns and labels:
human CRTH2 = target: T1, human CRTH2 (Homo sapiens, UniProt Q9Y5Y4); assay: Human CRTH2 binding assay (3H-PGD2 binding, 293(124) cells); details: 1 nM 3H-PGD2 and 30 nM unlabeled PGD2, read-out: IC50 observed in CRTH2 binding assay
T1 construct: Full-length human CRTH2 cDNA was generated by polymerase chain reaction (PCR); expressed in transfected cells
T1 sequence (Q9Y5Y4 1-395): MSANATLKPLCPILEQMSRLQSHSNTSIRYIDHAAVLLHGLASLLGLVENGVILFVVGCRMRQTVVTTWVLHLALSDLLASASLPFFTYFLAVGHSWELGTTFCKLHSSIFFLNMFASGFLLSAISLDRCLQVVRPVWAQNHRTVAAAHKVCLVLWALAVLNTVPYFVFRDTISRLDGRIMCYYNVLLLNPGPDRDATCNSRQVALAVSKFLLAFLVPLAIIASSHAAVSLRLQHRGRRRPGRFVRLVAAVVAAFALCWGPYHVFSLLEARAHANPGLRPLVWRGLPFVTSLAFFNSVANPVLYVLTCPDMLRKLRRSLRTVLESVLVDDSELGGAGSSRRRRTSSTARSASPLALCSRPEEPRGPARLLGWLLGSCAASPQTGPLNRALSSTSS
Procedure: Full-length human CRTH2 cDNA was generated by polymerase chain reaction (PCR) using human genomic DNA as template and subsequently cloned into pcDNA3.1(+) (Invitrogen Corp., Carlsbad, Calif.), generating a CRTH2 expression plasmid pHLT124. The plasmid was transfected into 293 cells, […], using LIPOFECTAMINE™ reagents (Invitrogen Corp., Carlsbad, Calif.). G418 ([…]) was added to the culture 48 h after transfection and cells were maintained under selection for 3 weeks to ensure that all surviving cells stably expressed CRTH2. These cells are labeled as 293(124) hereafter.
^3H-PGD2 binding assay was performed using 293(124) cells. In brief, cells were washed and suspended in RPMI containing 0.5% BSA and 20 mM HEPES. Each assay contained 25,000 cells, appropriate amount of test compound when necessary and a mixture of 1 nM ^3H-PGD2 (Amersham Biosciences, Piscataway, N.J.) and 30 nM of unlabeled PGD2 (Cayman Chemical Co., Ann Arbor, Mich.) in […] final volume. The cell mixture was incubated at room temperature for 2.5 h with shaking and the cells were separated from free ^3H-PGD2 and transferred onto a filter plate using a cell harvester. Radioactivity bound to the cells was measured on a liquid scintillation counter. Nonspecific binding was determined in the presence of […] of unlabeled PGD2.

human DP = target: T2, human DP (Homo sapiens, UniProt Q13258); assay: Human DP binding assay (3H-PGD2 binding, 293(128) cells); details: 2 nM 3H-PGD2 and 0 nM unlabeled PGD2, read-out: IC50 observed in DP binding assay
T2 construct: Full-length human DP cDNA was generated by PCR using human genomic DNA as a template; expressed in transfected cells
T2 sequence (Q13258 1-359): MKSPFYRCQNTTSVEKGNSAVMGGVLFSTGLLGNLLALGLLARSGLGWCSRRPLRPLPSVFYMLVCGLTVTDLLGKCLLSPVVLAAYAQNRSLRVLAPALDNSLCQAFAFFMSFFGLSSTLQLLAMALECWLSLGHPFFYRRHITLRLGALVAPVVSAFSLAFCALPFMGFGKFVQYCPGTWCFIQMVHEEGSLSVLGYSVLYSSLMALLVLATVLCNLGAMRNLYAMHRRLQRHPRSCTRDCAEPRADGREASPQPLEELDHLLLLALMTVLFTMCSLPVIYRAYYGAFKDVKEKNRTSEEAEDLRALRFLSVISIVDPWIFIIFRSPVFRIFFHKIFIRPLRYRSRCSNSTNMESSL
Procedure: Full-length human DP cDNA was generated by PCR using human genomic DNA as a template and subsequently cloned into pcDNA3.1(+) to generate a DP expression plasmid. The plasmid was transfected into 293 cells to generate a line of cells that have stable overexpression of human DP, termed 293(128) cells, essentially as described above for CRTH2. ^3H-PGD2 binding assays were performed using 293(128) cells as described above for CRTH2 except that each assay contained 350,000 cells, and 2 nM ^3H-PGD2 and 0 nM unlabeled PGD2.

SMILES | IC50 (human CRTH2) | IC50 (human DP)
COc1cc(CC(=O)O)ccc1Oc1ccc2[nH]c(C)cc2c1NS(=O)(=O)c1ccc(Cl)cc1Cl [Example 1, 2-(4-(4-(2,4-Dichlorophenylsulfonamido)-2-methyl-1H-indol-5-yloxy)-3-methoxyphenyl)acetic acid] | 10 to 100 nM | < 10 nM
O=C(O)Cc1ccc(Oc2cc3c(cc2NS(=O)(=O)c2ccc(Cl)cc2)C(=O)NC3=O)c(Cl)c1 [Example 30, 2-(3-Chloro-4-(6-(4-chlorophenylsulfonamido)-1,3-dioxoisoindolin-5-yloxy)phenyl)acetic acid] | 100 to 1000 nM | 1000 to 15000 nM
